# Measurements: article PMC13489962, “Small-molecule modulation of β-arrestins” (Nature, 2026)
# “Also recorded” adds a separate entry of the source.
# Columns and labels:
# [1] = test system: β-arrestin-dependent ERK1/2 activation downstream of β2AR; assay: Carvedilol-stimulated ERK1/2 phosphorylation in β2AR HEK293 cells; type: cell-based; settings: 30 μM; carvedilol 10 μM, 5 min
# Description: To evaluate the effect of small-molecule modulators on β-arrestin-dependent ERK1/2 signalling, HEK293 cells stably expressing β2AR were serum-starved for 6 h (refs. [34],[75]), then pretreated with β-arrestin modulators (30 μM) or vehicle for 20 min at 37 °C. Cells were subsequently stimulated with carvedilol (10 μM, 5 min), a β-arrestin-biased agonist known to promote ERK1/2 phosphorylation via β-arrestin scaffolding of RAF–MEK–ERK signalling components. Cells were lysed, sonicated (15 s), and centrifuged at 14,000g for 15 min at 4 °C. Equal amounts of total protein were resolved by SDS–PAGE on 4–20% Tris-Glycine gels (Thermo Fisher Scientific), transferred to nitrocellulose or PVDF membranes, and immunoblotted with anti–phospho-ERK1/2 (1:2,000; Cell Signaling) and total ERK1/2 (1:10,000; Millipore Sigma). HRP-conjugated secondary antibodies were used for detection. Protein bands were visualized using Pierce SuperSignal West Pico ECL substrate (Thermo Fisher Scientific), imaged on a ChemiDoc XRS system (Bio-Rad) and quantified by densitometry using ImageLab (Bio-Rad). Data were analysed using GraphPad Prism.
# [2] = test system: Gαi; assay: ITC binding to purified Gαi
# Description: ITC measurements were performed on a MicroCal iTC200 system at 25 °C. Prior to ITC experiments, all proteins (βARR1, βARR2 or βARR1 mutants) were extensively dialysed against 20 mM HEPES (pH 7.4), 100 mM NaCl, and 3 μM TCEP. Protein concentrations were determined by spectrophotometry at 280 nm, using extinction coefficients calculated from each protein sequence via the ProtParam program. The dialysis buffer was used to dilute DMSO stock solutions of β-arrestin small-molecule modulators to their final concentrations for measurements. For each ITC experiment, β-arrestin modulators (Cmpd-5 at 350 μM, Cmpd-46 at 450 μM, and Cmpd-64 at 450 μM) were loaded into the syringe and titrated into the calorimetric cell containing βARR1, βARR1 mutants or βARR2 (at about 30–40 μM, depending on the protein and experiment). Additional ITC experiments were also performed using purified GST-fused Gα subunits (Gαs, Gαq and Gαi; about 30 μM) and Gαiβγ heterotrimer (about 30 μM). Gα subunits were prepared in the same buffer (20 mM HEPES, pH 7.4, 100 mM NaCl, 3 μM TCEP), whereas the Gαiβγ heterotrimer was maintained in buffer supplemented with 0.05% DDM and 10 μM GDP, with matched DMSO carrier conditions. Modulators (300 μM) or corresponding DMSO controls were loaded and titrated as described above. The reference cell was filled with distilled water. In all experiments, the titration sequence typically consisted of an initial 0.4 μl injection, followed by 19 injections of 2 μl each, with a 180-s interval between injections to allow thermal power to return to baseline. During the experiment, the reference power was set to 7 μcal s^−1, and the sample cell was stirred continuously at 750 rpm. […] Data were analysed and fit using a one-site independent binding model to obtain the equilibrium dissociation constant, Kd (from the association constant Ka = 1/Kd), stoichiometry (N), and thermodynamic parameters including enthalpy (ΔH) and entropy (−TΔS) of binding. Data were analysed using MicroCal PEAQ-ITC analysis software (v1.1.0.1262).
# [3] = test system: D2R–Gi; assay: TRUPATH BRET2 Gα–Gβγ dissociation, D2R–Gi; type: cell-based; settings: 50 μM; quinpirole; βarr1/2 KO cells
# [4] = test system: M2R–Gi; assay: TRUPATH BRET2 Gα–Gβγ dissociation, M2R–Gi; type: cell-based, human; settings: 50 μM, 15 min; ACh; βarr1/2 KO cells
# Description: TRUPATH assays[73] were performed in HEK293 βARR1/2-knockout cells transiently transfected using FuGENE4K with a total of 4 μg per 15 cm dish plasmid DNA, including pcDNA3.1 constructs encoding human GPCRs (β2AR, AT1R, M2R or NTSR1), Gα–RLuc8, Gβ3 and Gγ9–GFP2 at a 1:1:1:1 ratio. TRUPATH components were obtained from B. Roth via Addgene (1000000163). Twenty-four hours after transfection, cells were replated into poly-D-lysine-coated 96-well white, clear-bottom plates at 20,000–30,000 cells per well in phenol red-free DMEM supplemented with 2% FBS. BRET signals were acquired 48 h after transfection. On the day of the assay, cells were washed and incubated in HBSS containing 20 mM HEPES (pH 7.4). Modulators were applied at 50 μM for 15 min, followed by addition of Prolume Purple substrate (Nanolight Technologies). Cells were then stimulated with increasing concentrations of agonist (angiotensin II, neurotensin, isoproterenol or acetylcholine). BRET2 was recorded in kinetic mode for 30 min using a CLARIOstar Plus plate reader (480 nm/510 nm), and peak signals were used for quantification. ΔNet BRET ratios were calculated by subtracting the BRET ratio of the vehicle-treated control from each condition, agonist alone or agonist plus modulator. […]
SMILES,effect on β-arrestin-dependent ERK1/2 activation [1],binding to Gαi [2],"mean fractional decrease vs DMSO in maximal Gα–Gβγ dissociation, D2R [3]","mean fractional decrease vs DMSO in maximal Gα–Gβγ dissociation, M2R [4]"
"C=C1C(=O)[C@]23[C@H](O)[C@H]1CC[C@H]2[C@@]12CO[C@]3(O)[C@@H](O)[C@@H]1C(C)(C)CC[C@@H]2O [Cmpd-5, (1S,4aR,5S,6S,6aR,9S,11aS,11bS,14R)-1,5,6,14-tetrahydroxy−4,4-dimethyl-8-methylenedecahydro-1H-6,11b-(epoxymethano)-6a,9-methanocyclohepta[a]naphthalen-7(8H)-one]",significantly attenuated; also recorded: attenuate,no measurable affinity,,
"C=C1C(=O)C2=CC1CCC(=O)C1(C)CCC(OCC)C(C)(C)C1CC2O (stereo not shown) [Cmpd-46, (Z)-3-ethoxy-6-hydroxy-4,4,13a-trimethyl-9-methylene-1,2,3,4,4a,5,6,9,10,11,12,13a-dodecahydro-7,10-(metheno)benzo[11]annulene-8,13-dione]",significantly attenuated; also recorded: attenuate,no measurable affinity,−0.18,−0.32
"C=C1C(=O)OC2CC3(C)OC3CCC(C)=CC(OC(C)=O)C12 (stereo not shown) [Cmpd-64, (Z)-4,10a-dimethyl-7-methylene-8-oxo-1a,2,3,6,6a,7,8,9a,10,10a decahydrooxireno[2’,3’:8,9]cyclodeca[1,2-b]furan-6-yl acetate]",significantly attenuated; also recorded: attenuate,very weak binding,−0.27,−0.38
